Results: patent US20110034369A1, “Agonists of Bitter Taste Receptors and Uses Thereof” (DEUTSCHES INSTITUT FUR ERNAHRUNGSFORSCHUNG POTSDAM-REHBRUCKE, priority 2004, published 2011)

Tests used:
Assay type in all cases: cell-based
hTAS2R1 = target: T1, hTAS2R1 (Homo sapiens, UniProt Q9NYW7); assay: FLIPR calcium mobilization, hTAS2R1-transfected HEK-293T/Gα16gust44 cells; conditions: response of hTAS2R1, calcium signal; for threshold: Fluo4-AM, transiently transfected HEK-293T Gα16gust44; for EC50: dose-response
T1 construct: export tag: amino acids 1-45 of rat somatostatin receptor 3 (N); expressed in transfected cells; host or cells: HEK-293T cells stably expressing the chimeric G-protein subunit Galpha16gust44
T1 sequence (Q9NYW7 1-299): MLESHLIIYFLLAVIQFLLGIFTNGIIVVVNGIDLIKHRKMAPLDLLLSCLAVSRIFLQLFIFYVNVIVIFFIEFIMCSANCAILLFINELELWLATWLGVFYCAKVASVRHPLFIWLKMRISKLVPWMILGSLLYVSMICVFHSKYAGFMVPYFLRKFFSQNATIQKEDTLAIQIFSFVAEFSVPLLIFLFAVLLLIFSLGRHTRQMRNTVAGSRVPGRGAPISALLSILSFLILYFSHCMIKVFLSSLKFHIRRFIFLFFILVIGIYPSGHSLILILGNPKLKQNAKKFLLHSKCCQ
Experimental: Ligand screening using an automated fluorometric imaging plate reader (Molecular Devices) was essentially done as described (Bufe B. et al. (2002) Nature Genetics 32: 397-401). Briefly: The cells were seeded at a density of 70,000±10,000 cells per well in 96-well microtiter plates. The cDNA of hTAS2R1, hTASR3, hTASR7 and hTASR40 supplemented with an amino terminal export tag corresponding to amino acids 1-45 of rat somatostatin receptor 3 and a carboxy terminal HSV-tag was transiently transfected into HEK-293T cells stably expressing the chimeric G-protein subunit Gα16gust44 (Ueda T. et al. (2003) J. Neurosci. 23: 7376-7380) using Lipofectamine2000 (Invitrogen). […] 24-32 hours after transfection, the cells were then loaded for 1 hour with the calcium sensitive dye Fluo4-AM (2 μg/ml in DMEM, Molecular Probes). Cells were washed 3× in solution C1 (130 mM NaCl, 5 mM KCl, 10 mM Hepes, 2 mM CaCl2, and 10 mM Glucose, pH 7.4). Calcium mobilization was monitored by an automated fluorometric imaging plate reader (Molecular Devices). Ligands (Sigma-Aldrich) were dissolved in C1 solution. All data were collected from experiments carried out in triplicate. For dose-response curves, the obtained calcium signals were corrected for and normalized to background fluorescence ΔF/F=(F−F0)/F0 and baseline noise was subtracted.

hTAS2R40 = target: T2, hTAS2R40 (Homo sapiens, UniProt P59535); assay: FLIPR calcium mobilization, hTAS2R40-transfected HEK-293T/Gα16gust44 cells; conditions: response of hTAS2R40; calcium signal
T2 construct: export tag: amino acids 1-45 of rat somatostatin receptor 3 (N); expressed in transfected cells; host or cells: HEK-293T cells stably expressing the chimeric G-protein subunit Galpha16gust44
T2 sequence (P59535 whole entry, the tested form may be a part): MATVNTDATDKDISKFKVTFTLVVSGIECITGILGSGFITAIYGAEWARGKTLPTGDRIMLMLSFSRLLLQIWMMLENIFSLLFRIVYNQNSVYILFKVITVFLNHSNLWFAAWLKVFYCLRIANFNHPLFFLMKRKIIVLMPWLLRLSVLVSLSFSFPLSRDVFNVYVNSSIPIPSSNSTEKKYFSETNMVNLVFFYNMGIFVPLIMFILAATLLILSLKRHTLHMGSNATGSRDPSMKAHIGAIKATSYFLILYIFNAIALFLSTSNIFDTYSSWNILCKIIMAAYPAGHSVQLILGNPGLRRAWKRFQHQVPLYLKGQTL
Experimental: (§1) Ligand screening using an automated fluorometric imaging plate reader (Molecular Devices) was essentially done as described (Bufe B. et al. (2002) Nature Genetics 32: 397-401). Briefly: The cells were seeded at a density of 70,000±10,000 cells per well in 96-well microtiter plates. The cDNA of hTAS2R1, hTASR3, hTASR7 and hTASR40 supplemented with an amino terminal export tag corresponding to amino acids 1-45 of rat somatostatin receptor 3 and a carboxy terminal HSV-tag was transiently transfected into HEK-293T cells stably expressing the chimeric G-protein subunit Gα16gust44 (Ueda T. et al. (2003) J. Neurosci. 23: 7376-7380) using Lipofectamine2000 (Invitrogen). Expression rates were determined to be 20% for hTAS2R1; 35% for hTAS2R3, 14% for hTAS2R7 and 29% for hTAS2R40 by indirect immunocyclochemistry using monoclonal anti-HSV antibodies (Novagen) and secondary anti-mouse IgG antibodies coupled to Alexa 488 (Molecular probes) see (FIG. 1). 24-32 hours after transfection, the cells were then loaded for 1 hour with the calcium sensitive dye Fluo4-AM (2 μg/ml in DMEM, Molecular Probes). […] Calcium mobilization was monitored by an automated fluorometric imaging plate reader (Molecular Devices). […] For dose-response curves, the obtained calcium signals were corrected for and normalized to background fluorescence ΔF/F=(F−F0)/F0 and baseline noise was subtracted.

hTAS2R7 = target: T3, hTAS2R7 (Homo sapiens, UniProt Q9NYW3); assay: FLIPR calcium mobilization, hTAS2R7-transfected HEK-293T/Gα16gust44 cells; conditions: response of hTAS2R7, calcium signal
T3 construct: export tag: amino acids 1-45 of rat somatostatin receptor 3 (N); expressed in transfected cells; host or cells: HEK-293T cells stably expressing the chimeric G-protein subunit Galpha16gust44
T3 sequence (Q9NYW3 1-318): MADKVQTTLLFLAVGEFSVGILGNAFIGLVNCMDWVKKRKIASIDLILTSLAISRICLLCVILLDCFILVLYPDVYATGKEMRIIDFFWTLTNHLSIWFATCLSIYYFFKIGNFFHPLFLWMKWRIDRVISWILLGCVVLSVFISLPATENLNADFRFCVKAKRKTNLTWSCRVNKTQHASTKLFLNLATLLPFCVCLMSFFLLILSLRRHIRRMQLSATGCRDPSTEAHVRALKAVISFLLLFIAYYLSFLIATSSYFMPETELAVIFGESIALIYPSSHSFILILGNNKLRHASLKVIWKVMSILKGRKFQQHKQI
Experimental: Ligand screening using an automated fluorometric imaging plate reader (Molecular Devices) was essentially done as described (Bufe B. et al. (2002) Nature Genetics 32: 397-401). Briefly: The cells were seeded at a density of 70,000±10,000 cells per well in 96-well microtiter plates. The cDNA of hTAS2R1, hTASR3, hTASR7 and hTASR40 supplemented with an amino terminal export tag corresponding to amino acids 1-45 of rat somatostatin receptor 3 and a carboxy terminal HSV-tag was transiently transfected into HEK-293T cells stably expressing the chimeric G-protein subunit Gα16gust44 (Ueda T. et al. (2003) J. Neurosci. 23: 7376-7380) using Lipofectamine2000 (Invitrogen). Expression rates were determined to be 20% for hTAS2R1; 35% for hTAS2R3, 14% for hTAS2R7 and 29% for hTAS2R40 by indirect immunocyclochemistry using monoclonal anti-HSV antibodies (Novagen) and secondary anti-mouse IgG antibodies coupled to Alexa 488 (Molecular probes) see (FIG. 1). 24-32 hours after transfection, the cells were then loaded for 1 hour with the calcium sensitive dye Fluo4-AM (2 μg/ml in DMEM, Molecular Probes). Cells were washed 3× in solution C1 (130 mM NaCl, 5 mM KCl, 10 mM Hepes, 2 mM CaCl2, and 10 mM Glucose, pH 7.4). Calcium mobilization was monitored by an automated fluorometric imaging plate reader (Molecular Devices). Ligands (Sigma-Aldrich) were dissolved in C1 solution. All data were collected from experiments carried out in triplicate. For dose-response curves, the obtained calcium signals were corrected for and normalized to background fluorescence ΔF/F=(F−F0)/F0 and baseline noise was subtracted.

hTAS2R3 = target: T4, hTAS2R3 (Homo sapiens, UniProt Q9NYW6); assay: FLIPR calcium mobilization, hTAS2R3-transfected HEK-293T/Gα16gust44 cells; conditions: response of hTAS2R3; calcium signal
T4 construct: export tag: amino acids 1-45 of rat somatostatin receptor 3 (N); expressed in transfected cells; host or cells: HEK-293T cells stably expressing the chimeric G-protein subunit Galpha16gust44
T4 sequence (Q9NYW6 1-316): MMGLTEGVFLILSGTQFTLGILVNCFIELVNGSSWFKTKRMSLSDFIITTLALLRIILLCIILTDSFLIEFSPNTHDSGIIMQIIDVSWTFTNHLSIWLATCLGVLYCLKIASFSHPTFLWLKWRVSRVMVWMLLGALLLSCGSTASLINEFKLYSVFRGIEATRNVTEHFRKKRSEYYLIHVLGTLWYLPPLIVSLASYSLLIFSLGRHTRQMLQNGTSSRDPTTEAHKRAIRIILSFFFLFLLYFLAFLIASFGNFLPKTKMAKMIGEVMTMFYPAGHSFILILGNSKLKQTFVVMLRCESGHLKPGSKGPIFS
Experimental: as §1

Molecule | max. amplitude (hTAS2R1) [counts] | threshold (hTAS2R1) [mM] | EC50 (hTAS2R1) [µM] | max. amplitude (hTAS2R7) [counts] | threshold (hTAS2R7) [mM] | other results
O=C(N[C@H](CO)[C@H](O)c1ccc([N+](=O)[O-])cc1)C(Cl)Cl [Chloramphenicol, chloramphenicol] | 9000 | ~0.1 | 200 |  |  | 
C=C(C)[C@@H]1[C@H]2OC(=O)[C@@H]1[C@]1(O)C[C@H]3O[C@]34C(=O)O[C@H]2[C@]14C [Picrotoxinin, picrotoxinin] | 2000 | ~0.0001 |  |  |  | 
humulone | 9000 | ~0.0001 | 0.9 |  |  | max. amplitude (hTAS2R40): 6000 counts; threshold (hTAS2R40): <0.00003 mM
COC(=O)[C@@H]1[C@H]2C[C@H]3c4[nH]c5ccccc5c4CCN3C[C@@H]2CC[C@@H]1O [Yohimbine, yohimbine] | 3000 | ~0.03 |  |  |  | 
CN1CC(=O)NC1=N [Creatinine, creatinine] |  |  |  | 3000 | ~10 | max. amplitude (hTAS2R3): 5000 counts; threshold (hTAS2R3): ~30 mM
O=C(O)c1cc(=O)c2c(OCC(O)COc3cccc4oc(C(=O)O)cc(=O)c34)cccc2o1 [Cromolyn, cromolyn] |  |  |  | 3000 | ~1 | EC50 (hTAS2R7; dose-response): 9000 µM
